This note sets out measurements from ChEMBL document CHEMBL1201862, “PubChem BioAssay data set” (2004).

Each structure is given as a SMILES string.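 Grown in 96-well plates, cells were treated for 48 hours with each compound at five concentrations. Insufficient inhibition: endpoint recorded as highest concentration tested. At the GI50, growth is halved.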 Activity calls are given as the source filed them. Rule as the data show it: active = GI50 up to about 1.1 µM and inactive = higher.

Among the test systems are T47D; HL-60; SNB-19; OVCAR-5; MCF7; CAKI-1; SF-295; SR; HT-29; MDA-MB-231; SF-268; U-251; SW-620; HCT-15; IGROV-1; NCI-H460; PC-3; HOP-92; HCC 2998; RPMI-8226.
Holding throughout (test): inhibition of tumour cell growth, NCI panel, 48 h

As to `COc1cc(C2CC(C)(N3CCCC3)Oc3cc4c(cc32)OCO4)cc(OC)c1OC` (stereo not given), the GI50 was 5.55 µM (inactive) in the assay on T47D; 0.13 µM (active) in the assay with HL-60; 0.277 µM (active) with SNB-19; > 100 µM (inactive) in the assay with OVCAR-5; 0.0925 µM (active) in the assay on MCF7; 0.527 µM (active) with CAKI-1. The GI50 was 0.0762 µM (active) in the assay with SF-295; 0.488 µM (active) with SR; 0.165 µM (active) in the assay on HT-29; 0.145 µM (active) in the assay on MDA-MB-231; 0.745 µM (active) in the assay with SF-268; 0.279 µM (active) in the assay on U-251. Further, the GI50 with SW-620 is 0.167 µM (active); with HCT-15, 0.12 µM; in the assay on IGROV-1, 0.31 µM (active); with NCI-H460, 0.288 µM (active); in the assay with PC-3 it was 0.0889 µM (active); in the assay on HOP-92 it was 62.1 µM (inactive). Further, in the assay with HCC 2998, the GI50 is 0.618 µM (active).

Consider `CC1(C)O[C@@H]([C@H](O)CO)[C@H](O)[C@@H](C2SCCCS2)O1`, for which the GI50 in the assay on T47D, with SNB-19, in the assay with OVCAR-5, in the assay on MCF7, in the assay on CAKI-1 and with SF-295 was > 100 µM (inactive) in each case. Also, the GI50 is 23.2 µM (inactive) in the assay with SR; > 100 µM (inactive) in the assay with HT-29; > 100 µM (inactive) in the assay with MDA-MB-231; > 100 µM (inactive) with SF-268; > 100 µM (inactive) in the assay with U-251; > 100 µM (inactive) in the assay on SW-620. For the same compound, the GI50 in the assay on HCT-15 was > 100 µM; in the assay with IGROV-1 it was > 100 µM (inactive); with NCI-H460, > 100 µM (inactive); in the assay on PC-3, > 100 µM (inactive); in the assay with HOP-92 it was 34.4 µM (inactive); with RPMI-8226, 50.6 µM (inactive). In addition, the GI50 with HCC 2998 was > 100 µM (inactive).

On to `C=CCNC(=S)N/C=C(\C#N)C(N)=O`, for which the GI50 in the assay on T47D, in the assay with HL-60, in the assay with SNB-19, in the assay with OVCAR-5, in the assay on MCF7 and in the assay with CAKI-1 was > 100 µM (inactive) each time. Also, the GI50 in the assay on SF-295, with SR, with HT-29, in the assay on MDA-MB-231, with SF-268 and in the assay with U-251 was > 100 µM (inactive) throughout. Further, the GI50 in the assay on SW-620 is > 100 µM (inactive); in the assay with HCT-15, > 100 µM; with IGROV-1, > 100 µM (inactive); with NCI-H460, > 100 µM (inactive); in the assay on PC-3, > 100 µM (inactive); with RPMI-8226, > 100 µM (inactive). Also, the GI50 in the assay with HCC 2998 was > 100 µM (inactive).

As to `O=C(O)CCCCn1cnc2c(S)ncnc21`, the GI50 in the assay with T47D, in the assay with SNB-19, in the assay on OVCAR-5, in the assay with MCF7, in the assay with CAKI-1 and with SF-295 was > 100 µM (inactive) each time. In addition, the GI50 with SR, with HT-29, in the assay with MDA-MB-231, in the assay with SF-268, with U-251 and in the assay on SW-620 was > 100 µM (inactive) in each case. Moreover, the GI50 in the assay on HCT-15 was > 100 µM; in the assay with IGROV-1, > 100 µM (inactive); in the assay with NCI-H460 it was > 100 µM (inactive); with PC-3, > 100 µM (inactive); in the assay with HOP-92, > 100 µM (inactive); in the assay with RPMI-8226, > 100 µM (inactive). Also, the GI50 in the assay on HCC 2998 was > 100 µM (inactive).

As for `C=CCOc1ccc(C2C(C(=O)OC)C(=O)CC(O)(c3ccccc3)C2C(=O)OC)cc1OC` (stereo not given), the GI50 in the assay on T47D was 20.8 µM (inactive); in the assay on HL-60, 31.6 µM (inactive); with SNB-19 it was > 100 µM (inactive); in the assay with OVCAR-5 it was > 100 µM (inactive); with MCF7 it was 21.2 µM (inactive); with CAKI-1, 32.3 µM (inactive). For the same compound, the GI50 in the assay with SF-295 was 26.9 µM (inactive); in the assay on SR, 27.4 µM (inactive); in the assay on HT-29, 42.2 µM (inactive); in the assay on MDA-MB-231, 18.4 µM (inactive); in the assay on SF-268, 20.5 µM (inactive); in the assay with U-251 it was 32 µM (inactive). The GI50 was > 100 µM (inactive) in the assay with SW-620; > 100 µM with HCT-15; 34.7 µM (inactive) in the assay on IGROV-1; 30.3 µM (inactive) in the assay with NCI-H460; 31.7 µM (inactive) with PC-3; 18 µM (inactive) in the assay with HOP-92. Moreover, the GI50 with HCC 2998 is 40.5 µM (inactive).

Regarding `COc1ccc(-c2c(=O)[nH]n3c(=S)[nH]c(-c4ccccc4)nc23)cc1OC`, the GI50 with T47D was 20.2 µM (inactive); in the assay on HL-60, 18 µM (inactive); with SNB-19, 15 µM (inactive); in the assay on OVCAR-5 it was 20.7 µM (inactive); in the assay with MCF7, 15.8 µM (inactive); in the assay with CAKI-1 it was 24.3 µM (inactive). Further, the GI50 in the assay with SF-295 is 20.8 µM (inactive); with SR it was 6.9 µM (inactive); in the assay with HT-29 it was 21.6 µM (inactive); with MDA-MB-231, 28.6 µM (inactive); with SF-268, 19.4 µM (inactive); in the assay on U-251, 17.5 µM (inactive). The GI50 was 30.1 µM (inactive) with SW-620; 17.3 µM in the assay on HCT-15; 23.8 µM (inactive) with IGROV-1; 29 µM (inactive) in the assay with NCI-H460; 31.3 µM (inactive) in the assay with PC-3; 17.7 µM (inactive) in the assay with HOP-92. Besides, the GI50 in the assay on HCC 2998 was 18.5 µM (inactive).

As to `CNC(=O)N1CCN(C(=O)NC)CCN(C(=O)NC)CC1`, the GI50 in the assay on T47D, in the assay with HL-60, in the assay on SNB-19, in the assay with OVCAR-5, in the assay on MCF7 and in the assay with SF-295 was > 100 µM (inactive) in each case. Besides, the GI50 with SR, in the assay on HT-29, in the assay on MDA-MB-231, in the assay on SF-268, in the assay on U-251 and with SW-620 was > 100 µM (inactive) in each case. In addition, the GI50 in the assay on HCT-15 was > 100 µM; with IGROV-1, > 100 µM (inactive); in the assay with NCI-H460, > 100 µM (inactive); in the assay on PC-3, > 100 µM (inactive); in the assay on HOP-92, > 100 µM (inactive); in the assay with RPMI-8226, > 100 µM (inactive). Moreover, the GI50 in the assay on HCC 2998 is > 100 µM (inactive).

On to `O=c1[nH]c(=S)c2cc3c(=S)[nH]c(=O)n(CCO)c3nc2n1CCO`, for which the GI50 with T47D, in the assay with SNB-19, in the assay on OVCAR-5, in the assay with MCF7, with CAKI-1 and in the assay with SF-295 was > 100 µM (inactive) in each case. The GI50 in the assay on SR is > 100 µM (inactive); in the assay with MDA-MB-231 it was > 100 µM (inactive); with SF-268, > 100 µM (inactive); in the assay on U-251, > 100 µM (inactive); in the assay on SW-620, > 100 µM (inactive); in the assay on HCT-15 it was > 100 µM. The GI50 in the assay on IGROV-1, with NCI-H460, in the assay with PC-3, in the assay with HOP-92, in the assay on RPMI-8226 and in the assay with HCC 2998 was > 100 µM (inactive) in each case.

For the compound `CCC(=O)O[C@H]1CC[C@H]2[C@@H]3CCC4=C/C(=N/OC(=O)c5cccc6c(=O)c7ccccc7[nH]c56)CC[C@]4(C)[C@H]3CC[C@]12C`, the GI50 in the assay on T47D was 29.9 µM (inactive); in the assay with SNB-19 it was 51.4 µM (inactive); in the assay with OVCAR-5, 33.7 µM (inactive); in the assay with MCF7 it was 20.9 µM (inactive); with SF-295, 29.9 µM (inactive); in the assay on SR, 29.8 µM (inactive). For the same compound, the GI50 in the assay with HT-29 is 27.3 µM (inactive); in the assay with MDA-MB-231, 88.3 µM (inactive); in the assay with SF-268 it was 38.5 µM (inactive); in the assay with U-251, 25.6 µM (inactive); in the assay on SW-620 it was 32 µM (inactive); in the assay on HCT-15, 21.3 µM. In addition, the GI50 in the assay with IGROV-1 is 21.8 µM (inactive); in the assay on NCI-H460 it was 22.2 µM (inactive); in the assay on PC-3 it was 26.9 µM (inactive); with HOP-92, 30.8 µM (inactive); in the assay with RPMI-8226, 19.9 µM (inactive); with HCC 2998, 21.3 µM (inactive).

For the compound `CCCCOCCOC1=CC(=O)c2c(O)ccc(O)c2C1=O`, the GI50 in the assay on T47D is 2.06 µM (inactive); in the assay with HL-60, 0.506 µM (active); in the assay on SNB-19, 1.75 µM (inactive); with MCF7 it was 1.31 µM (inactive); in the assay with CAKI-1, 1.78 µM (inactive); with SF-295 it was 1.66 µM (inactive). Besides, the GI50 was 1.24 µM (inactive) in the assay on SR; 1.67 µM (inactive) with HT-29; 1.95 µM (inactive) with MDA-MB-231; 1.76 µM (inactive) in the assay with SF-268; 1.7 µM (inactive) with U-251; 1.45 µM (inactive) with SW-620. The GI50 in the assay with IGROV-1 is 1.91 µM (inactive); in the assay with NCI-H460, 1.82 µM (inactive); in the assay with PC-3, 2.59 µM (inactive); in the assay on HOP-92 it was 2.56 µM (inactive); with RPMI-8226, 2.91 µM (inactive); in the assay with HCC 2998, 1.88 µM (inactive).

For `Cc1cc2c(-c3ccccc3)cc(=O)[nH]c2cc1N`, the GI50 in the assay on T47D, with SNB-19, with OVCAR-5, with MCF7, in the assay on CAKI-1 and in the assay on SF-295 was > 100 µM (inactive) throughout. The GI50 in the assay with SR was > 100 µM (inactive); in the assay on HT-29, > 100 µM (inactive); in the assay on MDA-MB-231, > 100 µM (inactive); in the assay with U-251, > 100 µM (inactive); in the assay on SW-620, > 100 µM (inactive); in the assay on HCT-15, > 100 µM. For the same compound, the GI50 with IGROV-1, in the assay on NCI-H460, in the assay on PC-3, with HOP-92, in the assay on RPMI-8226 and in the assay on HCC 2998 was > 100 µM (inactive) each time.
